# According to paper PMC539285, “Anti-Plasmodium activity of ceramide analogs” (Malaria Journal, 2004):
# Experiments:
# P. falciparum strain K1 = test: Anti-Plasmodium activity, strain K1; type: cell-based
# Experimental: (§1) P. falciparum strains (FcB1/Colombia, K1/Thailand, F32/Tanzania, W2/Indochina) were maintained in continuous culture on human erythrocytes in RPMI medium containing 7% (v/v) heat-inactivated human serum under an atmosphere of 3% CO2, 6% O2, 91% N2, at 37°C, as described by Trager and Jensen. Parasite synchronization was performed successively by treatment with 5% (w/v) sorbitol and by concentration in gelatin solution as previously described.
# (§2) Drug susceptibility assays were performed using a modification of the semi automated microdilution technique of Desjardins et al.. Stock solutions of test compounds were prepared in DMSO. Drug solutions were serially diluted twofold with 100 μl culture medium in 96-well plates. Asynchronous parasite cultures (100 μl, 1 % parasitemia and 1 % final hematocrite) were added to each well and incubated for 24 hours at 37°C prior to the addition of 0.5 μCi of [^3H] hypoxanthine (Amersham, France, 1 to 5 Ci.mmol/ml) per well. After a further incubation of 24 hour, plates were frozen and thawed. Cell lysates were then collected onto glass-filter papers and counted in a liquid scintillation spectrometer. The growth inhibition for each drug concentration was determined by comparison of the radioactivity incorporated in the treated culture with that in the control culture (having the same final % of DMSO) maintained on the same plate. […]
# P. falciparum strain W2 = test: Anti-Plasmodium activity, strain W2; type: cell-based
# Experimental: as §1, §2
# [1] = tested on: P. falciparum sphingomyelin synthase activity; test: Sphingomyelin synthase activity assay in trophozoite cultures (NBD-C6-ceramide); type: cell-based, Plasmodium falciparum; settings: trophozoites 20-30 h, 0-500 μM drug, 10 μM NBD-C6-ceramide, 60 min, 37°C
# Experimental: SPM synthase activity was measured as described by Haldar et al.. Briefly, assays were performed on P. falciparum cultures at the trophozoite stage (20–30 h old parasites). 400 μl of culture (1 × 10^8 parasites) were incubated for 60 min at 37°C with 10 μM NBD-C6-ceramide and 0 to 500 μM PPMP or AD2646. Cells were then lysed by freezing and thawing of the culture. Lipids were extracted by a modification of the method of Bligh and Dyer. To each sample, three volumes of a CH3OH/CHCl3 mixture (1:2, v:v) were added and the mixture vortexed for one min. Organic and aqueous phases were separated by centrifugation (12,000 × g, five min) and the organic phase was dried. Lipids were dissolved in 15 μl ethanol and analysed by thin layer chromatography on HPTLC plates (Silica gel 60 F254, Merck, Darmstadt, Germany) in CH3OH/[…]/NH4OH (75:25:4, v:v:v). For qualitative analyses, the fluorescent lipids were detected under UV and for quantitative analyses, the fluorescent lipid spots were scraped, eluted in one ml methanol and quantified at an excitation of 470 nm and an emission of 530 nm in a spectrofluorometer. The percentage of SPM synthase activity for each drug concentration was determined by comparison of the fluorescence quantified in the analog-treated culture with that in the control culture (without drug).
# [2] = tested on: malaria-induced anion channel; test: Malaria-induced anion channel activity, whole-cell patch-clamp; type: cell-based, Plasmodium falciparum; settings: infected erythrocytes, 24 hours, 250 nM AD2646 or 10 μM PPMP, whole-cell patch-clamp (unpublished data)
# Description: Sphingolipids preferentially interact with cholesterol in membranes, especially in detergent-resistant microdomains (DRMs or rafts). Rafts have been described in Plasmodium and are involved, at least, in the uptake of erythrocyte raft proteins and maintenance of the parasitophorous vacuole containing the parasite, inside the erythrocyte. This interaction implies : 1) van der Waals interactions between the saturated acyl chain and sphingoid moiety of sphingolipids and the rigid planar tetracyclic rings of cholesterol and 2) hydrogen bonds between the 3-β hydroxyl group of cholesterol and the fatty acyl carbonyl group resulting from the amide linkage with the sphingoid moiety. The amide-linked fatty acid function seems to have a profound stabilizing effect on cholesterol-sphingolipid interactions. It could be hypothesized that in a membrane context, methylene analogs might have a destabilizing effect on the cholesterol-sphingolipid interactions and, in consequence, modifications of membrane properties. Indeed, P. falciparum growth is characterized by a setting up of new permeabilities of the infected-erythrocyte membrane. Although the biochemical nature of these new permeabilities is still unknown, they have been characterized from an electrophysiological point of view and involve a malaria-induced anion channel. […]
# FcB1 strain = test: Drug combination with antimalarial drugs, strain FcB1; type: cell-based, Plasmodium falciparum; settings: FcB1 strain (data not shown)
# Description: Compound AD2646 (Figure 1) was selected to further investigate the biological effects of methylene analogs on parasite development.
smiles,measurement,setting,value
CCCCCCCCCCCCCCN[C@H](CO)[C@H](O)c1ccc([N+](=O)[O-])cc1 [AD2646],IC50,P. falciparum strain K1,45 nM
same,IC50,P. falciparum strain W2,28 nM
same,inhibition of SPM synthase activity (shape of curve),[1],biphasic inhibition curve that superimposes on the PPMP inhibition curve
same,induced anion channel activity,[2],did not modulate significantly the induced channel activity
same,drug combination effect with artemether,FcB1 strain,non-synergistic and non-antagonistic effect
same,drug combination effect with mefloquine,FcB1 strain,non-synergistic and non-antagonistic effect
